The target of one experiment is T1, LRRK2^RCKW (Homo sapiens, UniProt Q5S007).
T1 construct: LRRK2 R1327 to E2527; His6-Z-tag (TEV cleavable) (N, cleaved yes); host or cells: Sf9 insect cells (baculovirus)
T1 sequence (Q5S007 1327-2527): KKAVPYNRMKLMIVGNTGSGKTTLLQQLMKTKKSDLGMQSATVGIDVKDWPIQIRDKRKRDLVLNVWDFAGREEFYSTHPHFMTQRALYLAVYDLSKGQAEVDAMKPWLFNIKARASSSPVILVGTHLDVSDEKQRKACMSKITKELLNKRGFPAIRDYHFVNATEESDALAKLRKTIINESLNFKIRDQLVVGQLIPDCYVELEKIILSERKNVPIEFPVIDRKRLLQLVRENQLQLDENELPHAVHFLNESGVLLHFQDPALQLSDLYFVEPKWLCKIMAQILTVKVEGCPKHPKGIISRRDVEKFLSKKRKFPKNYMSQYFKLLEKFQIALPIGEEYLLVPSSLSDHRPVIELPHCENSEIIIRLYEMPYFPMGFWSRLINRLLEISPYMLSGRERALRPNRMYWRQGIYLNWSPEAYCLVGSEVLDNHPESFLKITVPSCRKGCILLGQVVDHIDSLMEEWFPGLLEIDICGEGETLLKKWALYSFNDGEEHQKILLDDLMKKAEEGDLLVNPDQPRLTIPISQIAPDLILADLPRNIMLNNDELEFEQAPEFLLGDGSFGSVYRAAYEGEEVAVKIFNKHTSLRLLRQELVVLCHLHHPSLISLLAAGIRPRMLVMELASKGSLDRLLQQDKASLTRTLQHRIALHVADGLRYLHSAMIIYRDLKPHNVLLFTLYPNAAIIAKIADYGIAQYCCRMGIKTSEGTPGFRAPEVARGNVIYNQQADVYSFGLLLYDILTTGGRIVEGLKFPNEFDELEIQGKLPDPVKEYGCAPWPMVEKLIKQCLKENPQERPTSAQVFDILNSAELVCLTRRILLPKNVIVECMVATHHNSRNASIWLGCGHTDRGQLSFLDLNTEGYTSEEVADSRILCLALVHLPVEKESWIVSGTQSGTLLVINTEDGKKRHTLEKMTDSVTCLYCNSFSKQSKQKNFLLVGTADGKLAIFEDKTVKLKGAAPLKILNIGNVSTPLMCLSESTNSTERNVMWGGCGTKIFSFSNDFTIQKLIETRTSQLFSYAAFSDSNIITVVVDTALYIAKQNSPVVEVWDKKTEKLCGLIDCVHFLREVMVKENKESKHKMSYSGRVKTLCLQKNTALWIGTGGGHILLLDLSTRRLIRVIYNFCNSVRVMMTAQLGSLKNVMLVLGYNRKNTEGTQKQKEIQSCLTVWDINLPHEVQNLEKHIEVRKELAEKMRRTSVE
As to the kind of experiment: Biochemical LRRK2 activity assay (PhosphoSense, AssayQuant SOX peptide AQT0615). Particulars: for IC50: LRRK2^RCKW kinase activity, in vitro; for normalized response (LRRK2 activity): normalized to 0% (no kinase) and 100% (no inhibitor) control, two singlicate columns per compound. As for the experimental part: Two wells per compound were used as 0% (without protein and compound) and 100% (without compound) control. […] The 0% control wells were filled with 10 μl of pure reaction buffer. With the ECHO, 5 nl of 100 mM ATP was pipetted into each well, the plates were centrifuged at 1500g for 2 min, and the reaction was incubated at room temperature for 4 hours. The fluorescence of the SOX-peptide after 360-nm excitation was measured at 487-nm emission with a PHERAstar plate reader (BMG Labtech). The IC50 values were calculated from a nonlinear regression of the log[inhibitor] versus the normalized response with GraphPad Prism 8 (www.graphpad.com/, RRID:SCR_002798).

The next experiment deals with T2, LRRK2^KW (Homo sapiens, UniProt Q5S007).
T2 construct: LRRK2 R1847 to E2527; His6-Z-tag (TEV cleavable) (N, cleaved yes); host or cells: Sf9 insect cells (baculovirus)
T2 sequence (Q5S007 1847-2527): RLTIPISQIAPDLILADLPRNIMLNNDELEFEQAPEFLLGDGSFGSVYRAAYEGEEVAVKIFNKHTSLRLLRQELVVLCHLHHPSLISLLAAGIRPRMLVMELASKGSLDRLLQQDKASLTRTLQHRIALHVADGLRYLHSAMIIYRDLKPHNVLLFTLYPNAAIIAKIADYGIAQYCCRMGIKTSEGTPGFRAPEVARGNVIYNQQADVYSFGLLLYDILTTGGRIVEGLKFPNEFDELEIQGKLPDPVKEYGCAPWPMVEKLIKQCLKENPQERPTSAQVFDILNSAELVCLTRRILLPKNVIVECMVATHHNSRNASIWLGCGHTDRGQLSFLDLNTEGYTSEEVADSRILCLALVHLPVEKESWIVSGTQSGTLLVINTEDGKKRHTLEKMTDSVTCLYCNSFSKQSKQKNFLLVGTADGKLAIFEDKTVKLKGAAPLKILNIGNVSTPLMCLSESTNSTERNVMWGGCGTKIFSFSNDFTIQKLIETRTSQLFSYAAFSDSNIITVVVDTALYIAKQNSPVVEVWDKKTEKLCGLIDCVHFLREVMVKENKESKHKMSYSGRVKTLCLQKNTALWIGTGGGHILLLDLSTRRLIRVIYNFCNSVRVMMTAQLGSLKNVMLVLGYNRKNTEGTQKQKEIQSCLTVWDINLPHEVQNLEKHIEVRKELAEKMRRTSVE
As to the kind of experiment: DSF thermal stabilization of LRRK2^KW. Particulars: DSF, LRRK2^KW, 10 μM inhibitor. The experiment is classed as binding. The procedure: To characterize binding between small molecules and LRRK2^KW, induced thermal stabilization was measured by DSF according to previously established protocols ([47]). In brief, LRRK2^KW was diluted to 4 μM in 20 mM Hepes (pH 7.4), 150 mM NaCl, 0.5 mM TCEP, 0.5% glycerol, 20 μM GDP, and 2.5 mM MgCl2, and SYPRO Orange was added (1:1000, MilliporeSigma). Inhibitor (10 μM) to be tested was added to a final sample volume of 20 μl per well of a 96-well plate (white, Starlab). […] The fluorescence was plotted against the temperature, and the melting point (Tm) was determined as the minimum of the first derivative relative to the control.

“And” between values parts separate entries of the source, which are not always exact repeats. Equal values may be shown once.

For the compound `O=C(Nc1ccc(F)cc1)C1(C(=O)Nc2cccc(-c3c[nH]c4ncnc(N5CCOCC5)c34)c2)CCCC1` [Compound 3], 0.694 ± 0.001 µM corresponded to half-maximal inhibition on LRRK2^RCKW (IC50). Further, the “normalized response (LRRK2 activity)” value on LRRK2^RCKW (log[inhibitor(mol)] -4.82391) is -13.5275% and -8.323%; on LRRK2^RCKW (log[inhibitor(mol)] -5.12494) it was -11.1035% and -8.9537%; at LRRK2^RCKW (log[inhibitor(mol)] -5.60206), 14.4144% and 11.8039%; on LRRK2^RCKW (log[inhibitor(mol)] -6.30103), 58.5784% and 59.582%; at LRRK2^RCKW (log[inhibitor(mol)] -6.90309) it was 93.4358% and 94.7027%; on LRRK2^RCKW (log[inhibitor(mol)] -7.30103), 100.456% and 104.273%. In addition, the “normalized response (LRRK2 activity)” value at LRRK2^RCKW (log[inhibitor(mol)] -7.60206) was 103.702% and 110.256%; at LRRK2^RCKW (log[inhibitor(mol)] -8.09691), 103.006% and 100.445%; at LRRK2^RCKW (log[inhibitor(mol)] -8.61979) it was 97.1047% and 100.867%; at LRRK2^RCKW (log[inhibitor(mol)] -9.09691), 96.2602% and 102.309%; at LRRK2^RCKW (log[inhibitor(mol)] -9.39794) it was 100.406% and 102.43%. Also, on LRRK2^KW, the “∆Tm (K)” value came to 6.0 K.

In the case of `Cc1ccc(NC(=O)C2(C(=O)Nc3ccc(F)cc3)CC2)cc1-c1c[nH]c2ncnc(N3CCOCC3)c12` [Compound 5], the IC50 (usually the concentration at which inhibition is half-maximal) at LRRK2^RCKW came to 9.58 ± 0.565 µM. The “normalized response (LRRK2 activity)” value was 55.8562% and 55.0924% at LRRK2^RCKW (log[inhibitor(mol)] -5.12494); 86.5066% and 85.5833% on LRRK2^RCKW (log[inhibitor(mol)] -5.60206); 96.7944% and 101.803% at LRRK2^RCKW (log[inhibitor(mol)] -6.90309); 96.688% and 103.084% at LRRK2^RCKW (log[inhibitor(mol)] -7.30103); 102.717% and 103.476% at LRRK2^RCKW (log[inhibitor(mol)] -7.60206); 97.9836% and 98.7571% on LRRK2^RCKW (log[inhibitor(mol)] -8.09691). Also, the “normalized response (LRRK2 activity)” value was 100.995% and 103.804% on LRRK2^RCKW (log[inhibitor(mol)] -8.61979); 100.705% and 102.156% at LRRK2^RCKW (log[inhibitor(mol)] -9.09691); 104.655% and 105.003% on LRRK2^RCKW (log[inhibitor(mol)] -9.39794). Further, the “∆Tm (K)” value on LRRK2^KW is 1.8 K.

As for `Cc1ccc(-c2c[nH]c3ncnc(N4CCOCC4)c23)cc1NC(=O)C1(C(=O)Nc2ccc(F)cc2)CC1` [Compound 7], the IC50 against LRRK2^RCKW came to 10.5 µM. Further, the “normalized response (LRRK2 activity)” value was 48.7254% and 32.1819% on LRRK2^RCKW (log[inhibitor(mol)] -4.82391); 55.2664% and 57.3114% at LRRK2^RCKW (log[inhibitor(mol)] -5.12494); 81.8607% and 85.9555% at LRRK2^RCKW (log[inhibitor(mol)] -5.60206); 94.4496% and 98.762% on LRRK2^RCKW (log[inhibitor(mol)] -6.30103); 100.265% and 101.228% at LRRK2^RCKW (log[inhibitor(mol)] -6.90309); 105.467% and 108.576% on LRRK2^RCKW (log[inhibitor(mol)] -7.30103). For the same compound, the “normalized response (LRRK2 activity)” value at LRRK2^RCKW (log[inhibitor(mol)] -7.60206) was 105.158% and 64.9692%; on LRRK2^RCKW (log[inhibitor(mol)] -8.09691), 97.331% and 101.237%; at LRRK2^RCKW (log[inhibitor(mol)] -8.61979), 106.173% and 99.8401%; at LRRK2^RCKW (log[inhibitor(mol)] -9.09691), 141.905% and 102.383%; on LRRK2^RCKW (log[inhibitor(mol)] -9.39794) it was 109.403% and 105.477%. In addition, at LRRK2^KW, the “∆Tm (K)” value amounted to 7.8 K.

Take `O=C(c1cccc(NC(=O)C2(C(=O)Nc3ccc(F)cc3)CC2)c1)c1c[nH]c2ncnc(N3CCOCC3)c12` [Compound 8]: half-maximal inhibition at LRRK2^RCKW (IC50) required 0.912 ± 0.141 µM. Further, the “normalized response (LRRK2 activity)” value is 4.225% and -5.581% on LRRK2^RCKW (log[inhibitor(mol)] -4.82391); 6.8846% and 7.148% on LRRK2^RCKW (log[inhibitor(mol)] -5.12494); 31.5798% and 32.6109% on LRRK2^RCKW (log[inhibitor(mol)] -5.60206); 61.7209% and 66.4318% at LRRK2^RCKW (log[inhibitor(mol)] -6.30103); 86.2516% and 93.0519% at LRRK2^RCKW (log[inhibitor(mol)] -6.90309); 93.3097% and 89.5476% at LRRK2^RCKW (log[inhibitor(mol)] -7.30103). For the same compound, the “normalized response (LRRK2 activity)” value is 86.8493% and 91.0776% on LRRK2^RCKW (log[inhibitor(mol)] -7.60206); 91.1928% and 88.5988% at LRRK2^RCKW (log[inhibitor(mol)] -8.09691); 102.068% and 96.0518% on LRRK2^RCKW (log[inhibitor(mol)] -8.61979); 105.369% and 96.9676% on LRRK2^RCKW (log[inhibitor(mol)] -9.09691); 104.196% and 102.019% on LRRK2^RCKW (log[inhibitor(mol)] -9.39794). Further, at LRRK2^KW, the “∆Tm (K)” value was determined as 7.0 K.

For the origin of these results see paper PMC12136037, “Type II kinase inhibitors that target Parkinson’s disease–associated LRRK2” (Science Advances, 2025).
